This note sets out measurements from ChEMBL document CHEMBL1201862, “PubChem BioAssay data set” (2004).

Common to all, as to test: NCI tumour cell line growth inhibition, 48 h
Assay [1] concerns SW-620.
Assay [2] relates to MOLT-4.
Assay [3] concerns UACC-62.
The subject of assay [4] is HT-29.
Assay [5] deals with LOX IMVI.
For assay [6], the system named is IGROV-1.
For assay [7], the system named is BT-549.
The test system of assay [8] is HOP-92.
The subject of assay [9] is MDA-MB-435.
Assay [10] deals with TK-10.
For assay [11], the system named is HCT-15.
Assay [12] deals with SK-MEL-28.
The test system of assay [13] is U-251.
Assay [14] concerns UO-31.
Assay [15] relates to SNB-19.
For assay [16], the system named is HCT-116.
The test system of assay [17] is EKVX.
Assay [18] deals with NCI/ADR-RES.
Assay [19] has as its system KM12.
In assay [20] the test system is M14.

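Dose response: 5 concentrations. Exposure: 48 h. Format: 96-well plates. Endpoint: linear interpolation; highest concentration if not reached. GI50: concentration for 50% inhibition of growth.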 The source made the active and inactive calls. No stated cut-off is given here; in the data, active = GI50 up to about 1.1 µM and inactive = higher. Bounds are passed on as bounds.

For `O=C(COc1ccc(OCC(=O)NNC2=NC(c3cc(F)c(Cl)cc3Cl)CS2)c(Cl)c1)NNC1=NC(c2cc(F)c(Cl)cc2Cl)CS1` (stereo not given), the GI50 is 30.6 µM (inactive) in assay [1]; 26.2 µM (inactive) in assay [2]; 18.6 µM (inactive) in assay [3]; 25.6 µM (inactive) in assay [4]; 1.04 µM (active) in assay [5]; 20.1 µM (inactive) in [6]. In addition, the GI50 in assay [7] was 24.1 µM (inactive); in assay [8], 21.6 µM (inactive); in [9], 16.7 µM (inactive); in [10], 25.8 µM (inactive); in [11], 16.7 µM; in assay [12], 29.5 µM (inactive). The GI50 in assay [13] was 14.4 µM (inactive); in assay [14] it was > 100 µM (inactive); in [15] it was 42.5 µM (inactive); in assay [16], 31.5 µM (inactive); in assay [17], 20.8 µM (inactive); in assay [18], 44.8 µM (inactive). Further, the GI50 is 44.4 µM (inactive) in [19] and 74 µM (inactive) in [20].

Regarding `COc1ccc(NC(C)=O)cc1N1C(=O)/C(=C\c2cc(OC)c(OC)c(OC)c2)S(=O)(=O)C1c1ccccc1` (stereo not given), the GI50 in assay [1] is 50.4 µM (inactive); in assay [2], 22 µM (inactive); in [3], 65.6 µM (inactive); in [4], 47.2 µM (inactive); in assay [5] it was 68.1 µM (inactive); in [6], 98.4 µM (inactive). Also, the GI50 in assay [7] is > 100 µM (inactive); in [8], 51.3 µM (inactive); in [9] it was 39.7 µM (inactive); in assay [10], > 100 µM (inactive); in [11], 73.1 µM; in assay [12], 39.3 µM (inactive). The GI50 in assay [13] was 46.8 µM (inactive); in [14], 38.7 µM (inactive); in assay [15] it was > 100 µM (inactive); in assay [16] it was 29.3 µM (inactive); in assay [17], 23.5 µM (inactive); in assay [18], 73.6 µM (inactive). The GI50 in assay [19] was 46.7 µM (inactive); in [20], 69.5 µM (inactive).

For `Cc1cc2c(cc1C)[n+]([O-])c(C(=O)N1CCN(c3ccc([N+](=O)[O-])cc3)CC1)c(C)[n+]2[O-]`, the GI50 in assay [1] was > 100 µM (inactive); in assay [2], > 100 µM (inactive); in assay [3], 41.9 µM (inactive); in assay [4], > 100 µM (inactive); in assay [5] it was 90.2 µM (inactive); in assay [6], 27.6 µM (inactive). The GI50 in assay [7] was 22.6 µM (inactive); in assay [8], 23.6 µM (inactive); in assay [9], > 100 µM (inactive); in assay [10], 18.1 µM (inactive); in [11] it was 77.6 µM; in assay [12] it was > 100 µM (inactive). The GI50 in assay [13] was 11.9 µM (inactive); in [14] it was 28.5 µM (inactive); in assay [15], 64.9 µM (inactive); in assay [16], 28.9 µM (inactive); in assay [17] it was 24.4 µM (inactive); in assay [18] it was > 100 µM (inactive). The GI50 is > 100 µM (inactive) in assay [19] and 32.5 µM (inactive) in assay [20].

Consider `CC(C)(C)OC(=O)NCCC(=O)NC1(c2cc3ccccc3s2)CCCCC1`, for which the GI50 in [1] was 22.6 µM (inactive); in assay [2] it was 10.9 µM (inactive); in assay [3], 20.6 µM (inactive); in assay [4], 13.8 µM (inactive); in assay [5] it was 18.2 µM (inactive); in assay [6], 17.3 µM (inactive). Moreover, the GI50 is 16.9 µM (inactive) in [7]; 16.6 µM (inactive) in assay [8]; 17.3 µM (inactive) in [9]; 29 µM (inactive) in [10]; 15.1 µM in [11]; 19.1 µM (inactive) in assay [12]. The GI50 in assay [13] is 19.3 µM (inactive); in assay [14], 16.1 µM (inactive); in assay [15], 17.4 µM (inactive); in assay [16], 13.9 µM (inactive); in assay [17] it was 20.9 µM (inactive); in assay [18] it was 18.1 µM (inactive). For the same molecule, the figures for the GI50 in assay [19] and in assay [20] were 18.7 µM (inactive) and 18.4 µM (inactive), respectively.

As to `COC(=O)C1CCC(=O)N1C(c1ccc(OC)cc1)c1ccc2c(c1)OCO2` (stereo not given), the GI50 in assay [1] was 33.5 µM (inactive); in assay [2], 36.3 µM (inactive); in [3], 32.7 µM (inactive); in assay [4] it was 34.9 µM (inactive); in [5], 50.4 µM (inactive); in assay [6] it was 52 µM (inactive). The GI50 in assay [7] was 89.7 µM (inactive); in assay [8], > 100 µM (inactive); in [9], 7.01 µM (inactive); in assay [10], > 100 µM (inactive); in assay [11], 32.3 µM; in [12] it was 57.1 µM (inactive). Besides, the GI50 is 39.4 µM (inactive) in assay [13]; 27.5 µM (inactive) in [14]; 37.2 µM (inactive) in assay [15]; 29 µM (inactive) in assay [16]; > 100 µM (inactive) in [17]; 33.3 µM (inactive) in assay [18]. Moreover, the values for the GI50 in assay [19] and in assay [20] were 9.46 µM (inactive) and 28.5 µM (inactive), respectively.

Consider `Cc1n[nH]c(=O)n1N=C(c1ccccc1)c1ccccc1`, for which the GI50 in assay [1], in assay [2], in assay [3], in [4], in [5] and in [6] was > 100 µM (inactive) each time. Also, the GI50 in assay [7] was > 100 µM (inactive); in assay [8] it was > 100 µM (inactive); in assay [9], > 100 µM (inactive); in assay [10] it was > 100 µM (inactive); in assay [11], more than 100 µM; in assay [12], > 100 µM (inactive). For the same molecule, the GI50 in [13], in assay [14], in [15], in assay [16], in assay [17] and in [18] was > 100 µM (inactive) throughout. The GI50 in [19] and in [20] was > 100 µM (inactive) in each case.

As to `O=C1/C(=C/c2ccc(Cl)cc2)Sc2scc(-c3cccc([N+](=O)[O-])c3)[n+]21`, the GI50 in assay [1] was 1.76 µM (inactive); in assay [2], 2.04 µM (inactive); in assay [3], 3.16 µM (inactive); in assay [4], 5.65 µM (inactive); in [5] it was 3.01 µM (inactive); in [6], 2.96 µM (inactive). For the same molecule, the GI50 in [7] was 2.2 µM (inactive); in assay [8], 2.17 µM (inactive); in assay [9], 3.4 µM (inactive); in assay [10], 2.13 µM (inactive); in assay [11], 1.9 µM; in assay [12], 2.81 µM (inactive). In addition, the GI50 in assay [13] was 4.55 µM (inactive); in assay [14] it was 4.43 µM (inactive); in assay [15], 15.6 µM (inactive); in assay [16] it was 2.06 µM (inactive); in [17] it was 4.18 µM (inactive); in [18], 2.37 µM (inactive). The GI50 was 2.89 µM (inactive) in assay [19] and 3.57 µM (inactive) in assay [20].

For `CC(C)CCCC(C)[C@H]1CC[C@H]2[C@@H]3CC[C@H]4C[C@@H](CCC=C(c5cc(Cl)c(O)c(C(=O)O)c5)c5cc(Cl)c(O)c(C(=O)O)c5)CC[C@]4(C)[C@H]3CC[C@]12C` (stereo not given in full), the GI50 in [1], in assay [2], in [3], in assay [4], in assay [5] and in [6] was > 50 µM (inactive) in each case. Also, the GI50 in assay [7] was > 50 µM (inactive); in assay [8], > 50 µM (inactive); in assay [9], > 50 µM (inactive); in [10], > 50 µM (inactive); in assay [11], 36.1 µM; in assay [12], > 50 µM (inactive). For the same molecule, the GI50 was > 50 µM (inactive) in assay [13]; 6.03 µM (inactive) in assay [14]; > 50 µM (inactive) in assay [15]; > 50 µM (inactive) in assay [16]; > 50 µM (inactive) in assay [17]; > 50 µM (inactive) in assay [18]. Besides, the GI50 in assay [19] and in assay [20] was > 50 µM (inactive) each time.

Take `O=c1oc2ccc([N+](=O)[O-])cc2cc1-c1csc(-c2ccccc2)n1`: the GI50 in [1], in [2], in [3], in assay [4], in assay [5] and in assay [6] was > 100 µM (inactive) each time. The GI50 in assay [7] is > 100 µM (inactive); in [8], > 100 µM (inactive); in [9] it was > 100 µM (inactive); in [10] it was > 100 µM (inactive); in assay [11], more than 100 µM; in [12], > 100 µM (inactive). The GI50 in assay [13], in [14], in assay [15], in assay [16], in assay [17] and in assay [18] was > 100 µM (inactive) throughout. Moreover, the GI50 in assay [19] and in assay [20] was > 100 µM (inactive) each time.

For `C#CC1(O)C(COP(=O)(O)OC(COCCCCCCCCCCCCCCCCCC)COP(=O)(O)OCC2OC(n3cc(C)c(=O)[nH]c3=O)CC2N=[N+]=[N-])OC(n2ccc(N)nc2=O)C1O` (stereo not given), the GI50 is 0.453 µM (active) in assay [1]; 0.347 µM (active) in [2]; 1.88 µM (inactive) in [3]; 1.16 µM (inactive) in assay [4]; 0.224 µM (active) in assay [5]; 0.381 µM (active) in assay [6]. The GI50 is 2.68 µM (inactive) in [7]; 0.91 µM (active) in [8]; 0.859 µM (active) in assay [9]; 0.505 µM (active) in assay [10]; 0.582 µM in assay [11]; 2.31 µM (inactive) in assay [12]. In addition, the GI50 is 0.264 µM (active) in assay [13]; 0.194 µM (active) in assay [14]; 1.8 µM (inactive) in [15]; 0.105 µM (active) in assay [16]; 5.25 µM (inactive) in assay [17]; 1.22 µM (inactive) in assay [18]. In addition, the GI50 was 0.891 µM (active) in [19] and 8.02 µM (inactive) in [20].
